Test results reported in EP1462117A1, “Method for in vivo detection of antipsychotic properties of dopamine D3 receptor ligands” (priority 2003, dated 2004).
Where a name gives a salt, the structure may show the parent alone.

Key:
MK-801-treated mice = assay: Resident-intruder assay in MK-801-treated mice; type: in vivo; details: MK-801 0.02 mg/kg/h for 7 days vs sham
Experimental: Male mice were housed individually or in groups of five for at least 1 week prior to minipump implantation (Day 0), delivering MK-801 (0.02 mg/kg/h) or saline (Sham), and were tested at day 7. As described in Dixon et al. (1994), a group-housed male (intruder) was placed in the home cage of the individually housed male (resident), and their behaviors were video recorded for 5 min. […] The videotaped behaviors of the resident or intruder male were individually scored, by an experimenter unaware of the treatment group, for time spent in social investigation (approaching, sniffing, grooming other mouse, and sexual behavior), and in escape behavior (actively avoiding the unfamiliar congener). The scores for each behavior were subsequently averaged for each group.
(§1) Between-group differences were analyzed with the Statistica™ software using two-way analysis of variance (ANOVA) and Least Significance Difference (LSD) post-hoc test. The analysis of data obtained with the same animals evaluated on several occasions (time-course experiments), between-within univariate or multivariate ANOVA for repeated measures were used (time being the repeated measure). Data from the resident-intruder assay were analyzed by analysis of variance (ANOVA), followed by a Tukey-Kramer Multiple Comparison post-hoc test.

Swiss mice [1] = assay: Locomotor hyperactivity induced by continuous infusion of MK-801 (osmotic minipumps); type: in vivo
Experimental: Male Swiss mice (IFFA CREDO, France), weighing 26-28 g, were housed six per cage (25 × 15 ×13 cm), on a 12 h/12 h light/dark cycle (lights on at 07:00 a.m.), with food and water freely available. Room temperature ranged from 20° to 22°C and humidity varied between 55% and 65%.
(§2) Dizocilpine, as (+)-MK-801 maleate (Sigma), dissolved in 0.9% NaCl (saline), and its respective vehicle solution, was continuously infused via osmotic minipumps (Model 1007D, Alzet Corp.). Minipumps were filled 6 h prior to implantation and placed in a sterile saline water bath at 37°C. Taking into consideration the average weight of the mice at the time of testing, and the rate of the minipump delivery (specified by the manufacturer), the MK-801 concentration was adjusted to deliver 0.01 or 0.02 mg/kg/hr (0.48 mg/kg/day). Mice were anaesthetized with chloral hydrate (400 mg/kg i.p.), and an area on the back of the mice was shaved and cleaned with 70% ethanol. A small incision was made, a pocket beneath the skin was formed and the minipump was placed inside the pocket in each mouse. The incision was sutured, and cleaned with 70% ethanol. The mice were returned in their home cage and in about 2 h they had recovered and were active.
(§3) Once the minipumps implanted (Day 0), the locomotor activity was measured for 1h, at days 2, 4 and 7 in an actimeter (Imetronic, Pessac, France).
as §1

[2] = system: D3 receptor-deficient mice (D3R^-/-); assay: MK-801-induced locomotor activity in D3 receptor-deficient mice; type: in vivo
Experimental: (§4) Male Swiss mice (Iffa Credo, France), weighing 25-30 g, were housed four per cage (25 × 15 × 13 cm), on a 12 hr/12 hr light/dark cycle (lights on at 07:00 a.m.), with food and water ad libitum. […] Experiments with D3R-deficient mice were performed on male homozygous mutant mice and their wild-type littermates. […] The mice used in the present study were backcrossed 7 to 8 times.
(§5) All experiments were conducted between 2.00 p.m. and 6.00 p.m., and the animals were kept in the test room at least 1 h before recording their activity. […] Counts for forward horizontal activity were incremented each time the animal moved from one-half part of the cage to the other, corresponding to disruption of two crossed parallel beams distant of 14 cm. In time-course studies, counts were summed every 5 min.
(§6) In addition, another experiment was performed with two groups of 8 mice of each genotype, injected with either saline or haloperidol (0.05 mg/kg).
as §1, with “measure).” for “measure). Data from the resident-intruder assay were analyzed by analysis of variance (ANOVA), followed by a Tukey-Kramer Multiple Comparison post-hoc test.”

Swiss mice [3] = assay: MK-801 (dizocilpine)-induced and spontaneous locomotor activity, acute treatment, actimeter; type: in vivo
Experimental: as §4
Haloperidol (Janssen Pharmaceuticals, Beerse, Belgium) and clozapine (Novartis, Basel, Switzerland) were dissolved in a few drops of hydrochloric acid and distilled water, and the pH of the solution was adjusted to pH 5 to 6 using NaOH. […] The compounds were injected i.p. in a volume of 5 ml/kg.
as §5
as §1, with “measure).” for “measure). Data from the resident-intruder assay were analyzed by analysis of variance (ANOVA), followed by a Tukey-Kramer Multiple Comparison post-hoc test.”
To assess simply the in vivo biological activity of the novel compound at the D3 receptor, the above described test, in which hyperlocomotion induced by low doses of dizocilpine is measured, was used.

[4] = system: D3 receptor gene-targeted (D3^-/-) mice; assay: Continuous MK-801 infusion in D3 receptor gene-targeted mice, locomotor activity; type: in vivo
Experimental: as §2, with “A small incision was made, a pocket beneath the skin was formed and the minipump was placed inside the pocket in each mouse. The incision was sutured, and cleaned with 70% ethanol. The mice were returned in their home cage and in about 2 h they had recovered and were active.” left out
as §3, §1

Dopamine transporter = Dopamine transporter binding in monkey striatum (autoradiography); design: species or system Macaca fascicularis; details: dorsolateral quadrant, rostral level
[5] = Plasma concentrations in mice; type: in vivo; details: dose inhibiting dizocilpine-induced hyperlocomotion
[6] = Plasma concentrations in monkeys (radioreceptor assay); type: in vivo; details: monkey; for time of maximal plasma concentration: in vivo; for half-life: plasma
wild-type (D3R^+/+) mice = assay: MK-801-induced locomotor activity in wild-type mice; type: in vivo; details: haloperidol 0.05 mg/kg; MK-801 […]; D3R^+/+ mice
Experimental: Male Swiss mice (Iffa Credo, France), weighing 25-30 g, were housed four per cage (25 × 15 × 13 cm), on a 12 hr/12 hr light/dark cycle (lights on at 07:00 a.m.), with food and water ad libitum. […] Experiments with D3R-deficient mice were performed on male homozygous mutant mice and their wild-type littermates. […] Subsequently, these mice were backcrossed up to 8 times with C57BL6 mice. The mice used in the present study were backcrossed 7 to 8 times.
as §5, §6
as §1, with “measure).” for “measure). Data from the resident-intruder assay were analyzed by analysis of variance (ANOVA), followed by a Tukey-Kramer Multiple Comparison post-hoc test.”

MPTP-intoxicated monkeys = assay: Levodopa-induced dyskinesia, PD-like symptoms and locomotor activity in MPTP-intoxicated monkeys
[7] = chronic infusion through osmotic minipumps for 7 days
[8] = dyskinetic levodopa-treated MPTP-monkeys
[9] = non-dyskinetic levodopa-treated MPTP-monkeys
[10] = habituation phase, 30 min starting 5 min after injection, all doses tested
[11] = one monkey, nafadotride 1.0 mg/kg
[12] = same monkey, nafadotride 1.3 mg/kg

C[C@]12N[C@H](Cc3ccccc31)c1ccccc12 [MK-801, (+)-5-methyl-10,11-dihydro-5H-dibenzo[a,d]cyclohepten-5,10-imine maleate]
Social investigations, effect of the MK-801 treatment (MK-801-treated mice): reduced | escape behavior, effect of the MK-801 treatment (MK-801-treated mice): enhancement of escape behavior | duration of locomotor hyperactivity after cessation of the drug delivery (Swiss mice [1]; [7]): at least 4 days | time at which locomotor hyperactivity first appeared (Swiss mice [1]; [7]): 7 days | MK-801-induced hyperactivity compared with wild-type littermates ([2]; D3 receptor-deficient mice): two to three times less | stimulatory effects of MK-801, genotype comparison ([2]; MK-801 0.3 mg/kg, D3R^+/+ vs D3R^-/- mice): no significant differences | locomotor activity after injection of MK-801 (Swiss mice [3]; MK-801 0.12 or 0.3 mg/kg i.p., after 30-min habituation): locomotor hyperactivity | response induced by MK-801 at 0.3 mg/kg relative to […] (Swiss mice [3]; locomotor activity, i.p.): about three | hypersensitivity to methamphetamine ([4]; MK-801 0.02 mg/kg/h during 7 days, methamphetamine 1 mg/kg i.p.): completely abolished | attenuation of MK-801-induced hyperactivity compared to wild-type (D3^+/+) mice ([4]; MK-801 0.02 mg/kg/h for 7 days): ~ 50%

CN1CC=C(c2ccccc2)CC1 [MPTP, 1-methyl-4-phenyl-1,2,3,6-tetrahydropyridine]
decrease of DAT binding in Pu (Dopamine transporter; MPTP-monkeys): 97.1 ± 0.3% | decrease of DAT binding in Cd (Dopamine transporter; MPTP-monkeys, vs controls): 96.3 ± 0.3% | decrease of DAT binding in Cd (Dopamine transporter; [8]): 95.7 ± 0.8% | decrease of DAT binding in Pu (Dopamine transporter; [8]): 95.0 ± 1.3% | decrease of DAT binding in Cd (Dopamine transporter; [9]): 96.7 ± 0.4% | decrease of DAT binding in Pu (Dopamine transporter; [9]): 97.0 ± 0.4%

O=C(/C=C/c1ccccc1)NCCCCN1CCc2ccccc2C1 [ST 198, (E)-N-(4-[1,2,3,4-tetrahydroisoquinolin-2-yl]-butyl)-3-phenylacrylamide]
maximal plasma concentration [5]: 3.7 ± 0.2 µM | time of maximal plasma concentration [6]: 30 min | half-life [6]: ~30 min

CN1CCN(C2=Nc3cc(Cl)ccc3Nc3ccccc32)CC1 [clozapine]
spontaneous activity (Swiss mice [3]; [10]): no effect

O=C(CCCN1CCC(O)(c2ccc(Cl)cc2)CC1)c1ccc(F)cc1 [haloperidol]
MK-801-induced locomotor activity (wild-type (D3R^+/+) mice): strongly inhibited | MK-801-induced hyperactivity (Swiss mice [1]; acute administration on the 10th day after minipump implantation, clozapine 1 mg/kg, haloperidol 0.3 mg/kg, BP 897 1 mg/kg): inhibited | spontaneous hyperactivity (Swiss mice [1]; subchronic treatment twice a day for 4.5 days from day 6, BP 897 1 mg/kg, haloperidol 0.3 mg/kg, recorded at least 6 hours after last administration): reversed | methamphetamine-induced hyperactivity (Swiss mice [1]; subchronic treatment twice a day for 4.5 days from day 6, methamphetamine 1 mg/kg, recorded at least 6 hours after last administration): reversed | activity with MK-801 (Swiss mice [3]; MK-801 […], 60 min, compound i.p. 0.1, 0.3, 1 mg/kg (haloperidol 0.03, 0.1, 0.3 mg/kg), overall dose-response): strongly and dose-dependently blocked | MK-801-induced hyperactivity (Swiss mice [3]; compound 0.03 mg/kg i.p., MK-801 […], post-hoc vs saline): significantly reduced | MK-801-induced hyperactivity (Swiss mice [3]; compound 0.1 mg/kg i.p., MK-801 […], post-hoc vs saline): significantly reduced | MK-801-induced hyperactivity (Swiss mice [3]; compound 0.3 mg/kg i.p., MK-801 […], post-hoc vs saline): significantly reduced | spontaneous activity (Swiss mice [3]; compound 0.3 mg/kg i.p., post-hoc vs saline): significantly reduced | spontaneous activity (Swiss mice [3]; [10]): reduction of the spontaneous activity

N[C@@H](Cc1ccc(O)c(O)c1)C(=O)O [levodopa]
parkinsonian score (MPTP-intoxicated monkeys; dyskinetic monkeys under levodopa, parkinsonism corresponds to a score above 6): 0.2 ± 0.1 | LID score (MPTP-intoxicated monkeys; five out of nine levodopa-treated monkeys (severe LID), maximum of 4, levodopa 47 to 60 mg/kg twice daily for 6-8 months): 3.4 ± 0.1 | LID score (MPTP-intoxicated monkeys; the four remaining levodopa-treated animals): < 0.4

CCCCN1CCCC1CNC(=O)c1cc(C#N)c2ccccc2c1OC (stereo not shown) [nafadotride, N[(n-butyl-2-pyrrolidinyl)methyl]-1-methoxy-4-cyano naphtalene-2-carboxamide]
locomotor response to MK-801 ([2]; compound 1 mg/kg, MK-801 […], D3R^-/- mice): no longer able to inhibit | time of maximal plasma concentration [6]: 60 min | half-life [6]: ~50 min | on-time duration (MPTP-intoxicated monkeys; from activity counts, threshold at 30% of the maximal activity, over 5 hr): markedly reduced | LID score (MPTP-intoxicated monkeys; [11]): 0.5 | PD-like symptoms score (MPTP-intoxicated monkeys; [11]): 0 | score of LID (MPTP-intoxicated monkeys; [12]): 0.5 | score of PD-like symptoms (MPTP-intoxicated monkeys; [12]): 4 | locomotor activity (activity counts) (MPTP-intoxicated monkeys; with levodopa): strongly reduced | LID (MPTP-intoxicated monkeys; with levodopa, at first active dose, nafadotride on 3 out of 4 monkeys, ST 198 30-90 min after administration): reduction of LID similar to that obtained with BP 897
